In US20210163489A1, “PYRAZOLOPYRIMIDINE DERIVATIVES AND THE COMPOSITIONS AND METHODS OF TREATMENT REGARDING THE SAME” (NysnoBio Ireland DAC, priority 2016, published 2021):

What was measured:
Parkin ligase = biological target: T1, Parkin ligase (Homo sapiens, UniProt O60260); experiment: Activity-based probe assay using an ubiquitin vinyl sulfone probe (TR-FRET); format: biochemical; details: activation of heat activated Parkin, HA-Ub-VS probe; read-out: Probe Assay EC50 (μM) [Example 2]
T1 construct: Enzyme: Parkin-His tagged 203 μM (10.5 mg/ml)
T1 sequence (O60260 1-465): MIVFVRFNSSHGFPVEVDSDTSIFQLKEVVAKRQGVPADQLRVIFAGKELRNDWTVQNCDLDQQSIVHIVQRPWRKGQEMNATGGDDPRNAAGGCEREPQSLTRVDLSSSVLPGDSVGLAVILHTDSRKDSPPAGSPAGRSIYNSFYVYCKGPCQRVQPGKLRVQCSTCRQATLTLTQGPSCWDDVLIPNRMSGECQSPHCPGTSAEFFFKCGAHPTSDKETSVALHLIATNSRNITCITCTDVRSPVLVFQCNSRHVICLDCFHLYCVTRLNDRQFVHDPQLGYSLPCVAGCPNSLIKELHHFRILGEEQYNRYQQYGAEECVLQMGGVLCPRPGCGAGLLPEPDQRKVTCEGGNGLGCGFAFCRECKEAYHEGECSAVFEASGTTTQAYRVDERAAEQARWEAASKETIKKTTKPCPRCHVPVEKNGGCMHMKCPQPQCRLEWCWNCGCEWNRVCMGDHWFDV
Procedure: An Ubiquitin vinyl sulfone probe can be used that irreversibly binds to the active site cysteine of Parkin ligase. Covalent attachment of the probe to the Parkin can be monitored by TR-FRET. Candidate activator compounds can be identified by increasing the activity of Parkin ligase due to an increase in TR-FRET signal. Screening for activating compounds can be distinguished from the controls as follows:
100% activation signal=Heat activated Parkin+100 nM control activator in DMSO. 0% activation signal=Heat activated Parkin+DMSO only. Parkin activators can be identified by an increase of the 0% activation signal TR-FRET signal.
• Assay Plate: White 384 well plate (Corning 3572) • Enzyme: Parkin-His tagged 203 μM (10.5 mg/ml) • Probe: Ubiquitin vinyl-sulfone (HA-Ub-VS Boston Biochem U-212) • DMSO: DMSO (Sigma cat # D4540-100ML) • Reaction Buffer: 50 mM HEPES (pH 8.5), 150 mM NaCl, 0.01% Tween 20, 0.1% BSA • Detection Buffer: 50 mM HEPES (pH 8.5), 150 mM NaCl, 0.01% Tween 20, 0.1% BSA, 800 mM KF • Detection Reagent A: 2.6 nM Anti-6HIS-Eu cryptate and 40 nM Anti-HA-XL665 in detection buffer • Eu cryptate: Anti-6HIS-Eu cryptate (CisBio 61HISKLA) • XL665: Anti-HA-XL665 (CisBio 610HAXLA) Enzyme Reaction (15 min Pre Incubation Parkin with Activator Only) • Parkin: 40 nM • HA-Ub-VS Probe: 70 nM • Activator/DMSO: 2× Activator/2% DMSO • Reaction time: 60 minutes • Temperature: 22° C. • Total volume: 10 μl reaction
• Take 10 μl of Enzyme Reaction above and add 10 μl detection Reagent A under the following conditions: • Reaction time: 60 minutes • Temperature: 22° C. • Total volume: 20 μl
Assay procedure (Using HP D-300 compound dispenser and Bravo for the operation):
1) Heat activate Parkin in reaction buffer (500 μl/1.5 ml tube: Eppendorf Thermomixer 5 minutes, 400 rpm at 58° C. and put on ice until needed). 2) Load assay plate wells with 4.8 μl 84.5 nM Parkin in reaction buffer by use of Bravo. 3) Deliver 0.2 μl 200× activator candidates in DMSO by use of HP D-300 compound dispenser. Highest 200× concentration=20 μm and then twofold dilutions. 4) Spin 1000 rpm, 2 minutes, at room temp. 5) Incubate plate for 15 minutes at room temp. 6) Add 5 μl 140 nM HA-Ub-VS Probe in reaction buffer by use of Bravo. 7) Spin 1000 rpm, 2 minutes, at room temp. 8) Incubate plate for 60 minutes at room temp. 9) Add 10 μl 2.6 nM Anti-6HIS-Eu cryptate and 40 nM Anti-HA-XL665 in detection buffer. 10) Spin 1000 rpm, 2 minutes, at room temp. 11) Incubate plate for 60 minutes at room temp. 12) Read plates on Perkin Elmer Envision instrument with the following parameters:
(§1) LANCE dual laser protocol loaded into the Envision® software
(§2) Top Mirror: LANCE/DELFIA Duel/Bias (Bar code 446) Emission Filter: APC 665 EM (Bar code 205) 2nd Emission Filter: Europium 615 EM (Bar code 203) Read […] (channel 1) and 615 nm (channel 2) wavelengths on Envision®
(§3) Data Analysis: The Data can be read in CSV files. There are two tables in those CSV files, which are the values of 655 nm (channel 1) and 615 nm (channel 2) wavelengths respectively. The data is converted to an HTRF Ratio=(Channel 1/Channel 2)*10,000
(§4) The average of all the 0 uM controls (DMSO only)=BKGD (Background—0% activation). Subtract BKGD from each HTRF Ratio value=HTRF-BKGD. The average of all the 100 uM 100 nM control activator in DMSO controls=Max (100% activation). The following equation is then used to calculate % Activation for each well/candidate as follows: % Activation=(HTRF−BKGD/Max)*100.
Graphpad Prisim was used with Transform X values: X=Log(X) and nonlinear regression (dose-response-stimulation): Log(agonist) vs Response—variable slope (four parameters) with constrains set to Bottom=0 and Top=100.

[1] = Metabolic stability in rat liver microsomes (RLM); format: in vitro ADME; details: 1 μM compound, 1.0 mg/mL microsome, NADPH
Procedure: Compounds were also tested for metabolic stability in both rat liver microsomes (RLM) and human liver microsomes (HLM) and their half-life calculated (See Table 6). The assay was performed as follows. The total volume for each incubation was 250 μL. A 100 μM DMSO solution of compound (diluted from 10 mM stock solution) was spiked into 50 mM KH2PO4 (pH 7.4) buffer containing liver microsome at a concentration of 1.0 mg/mL. The reaction was initiated by the addition of 50 μL of 1 mM NADPH. The final concentration of each compound was 1 μM (1% DMSO). The positive controls, phenacetin for CYP1A2, diclofenac for CYP2C9, omeprazole for CYP2C19, dextromethorphan for CYP2D6 and midazolam for CYP3A4 were added to a separate tube with the final substrate concentrations of 1 μM (1% DMSO) for evaluating the enzyme activities in the liver microsomes. At 0, 15, 30 and 60 min, an aliquot of 15 μL reaction mixtures were removed and 200 μL of methanol (with internal standard of 25 ng/mL propranolol) was added to quench the reaction. The resulting mixture was centrifuged and supernatant was used for LC-MS/MS analysis.
The signals for each compound, or the metabolites for the probe substrates and the internal standard were integrated and the peak area ratios to internal standard were generated. Percent parent remaining at a specified timepoint was calculated based on the peak area ratios at time 0 (as 100%) for in vitro metabolic stability studies in liver microsome and hepatocyte. The observed rate constant (kobs) for the metabolism of substrates was calculated by plotting the natural log of percentage substrate remaining versus time of incubation with the slope being kobs. The half-life (T1/2) was calculated according to the following equation: […]

Parkin = biological target: T2, Parkin (Homo sapiens, UniProt O60260); experiment: Parkin pUB auto-ubiquitinylation assay (TR-FRET); format: biochemical; details: activation of pUb activated Parkin; read-out: Auto-ubiq EC50 (μM) [Example 3]
T2 construct: Enzyme 3: Parkin-His tagged 203 μM (10.5 mg/ml)
Description: A Parkin pUB Auto-ubiquitinylation Assay is used to evaluate a compound's potency to activate Parkin's ability to Auto-ubiquitinylate itself.
The principle of this assay is that the E3 Ligase Parkin catalyzes the transfer of Ubiquitin to target proteins, but also has the ability to auto-ubiquitinylate itself. The phospho-Ubiquition (pUb) added to the assay alters the Parkin to a state where small molecule activators can enable the Parkin to auto-ubiquitinylate though the E1-E2 cascade reaction. The use of a Eu cryptate Ubiquition and anti 6His-d2 that binds to the His tagged Parkin will give a signal when the Eu cryptate Ubiquition is auto-ubiquitinylate onto the Parkin which can be monitored by TR-FRET.
Similar to the Activity-based probe assay in Example 2, screening for activating compounds can be distinguished from the controls as follows:
100% activation signal=pUb activated Parkin+40 nM control activator in DMSO. 0% activation signal=pUb activated Parkin+DMSO only. Parkin activators can be identified by an increase of the 0% activation signal TR-FRET signal.
• Assay Plate: White 384 well plate (Corning 3572) • Enzyme 1: E1 (Ubiquitin-activating enzyme/UBE1 Boston Biochem E-305) • Enzyme 2: E2 (UBcH7/Ube2L3 Boston Biochem E2-640) • Enzyme 3: Parkin-His tagged 203 μM (10.5 mg/ml) • pUb: Phospho-Ubiquitin (S65) (Boston Biochem U-102) • Eu Cryptate Reagent: Ubiquitin Eu (CisBio 61UBIKLA) • DMSO: DMSO (Sigma-34869-2.5L) • Reaction Buffer: 50 mM HEPES, 50 mM NaCl, 1 mM MgCl2, 0.005% Tween 20, 0.1% • PF-127 (Fisher Scientific 50-310-494), pH 8.5 • Detection Buffer: 50 mM HEPES, 50 mM NaCl, 800 mM KF, 5 mM EDTA, 0.005% • Tween 20, 0.1% PF-127, pH 8.5 • Detection Reagent Z: 13.4 nM Anti-6His-d2 in detection buffer • d2 Reagent: Anti-6His-d2 (CisBio 61HISDLA)
Enzyme Reaction (15 min Pre-Incubation with Parkin, pUb and Activator Only) • Parkin: 196 nM • pUb: 196 nM • DMSO: 1% DMSO • E1: 5 nM • E2: 50 nM • Ubiquitin Eu: 8.8 nM • Reaction time: 120 minutes • Temperature: 22° C. • Total volume: 10 μl reaction
Take 10 μl of Enzyme Reaction above and add 10 μl detection Reagent Z under the following conditions:
Reaction time: 60 minutes
1) Load assay plate wells with 4.9 μl 400.0 nM Parkin, 400 nM pUb in reaction buffer by use of Eppendorf 12-channel pipette. 2) Deliver 0.1 μl 100× activator candidates in DMSO by use of Echo 555 compound dispenser. Highest 100× concentration=100 μm and then twofold dilutions. Add each compound and control in duplicate wells. 3) Spin 1000 rpm, 2 minutes, at room temp. 4) Incubate plate for 15 minutes at room temp. 5) Add 5 μl 10 nM E1, 100 nM E2, 17.6 nM Ubiquitin Eu and 2 mM ATP in Reaction Buffer by use of Eppendorf 12-channel pipette. 6) Spin 1000 rpm, 2 minutes, at room temp. 7) Incubate plate for 120 minutes at room temp. 8) Add 10 μl 13.4 nM anti his d2 in detection buffer by use of Eppendorf 12-channel pipette. 9) Spin 1000 rpm, 2 minutes, at room temp. 10) Incubate plate for 120 minutes at room temp. 11) Read plates on Perkin Elmer Envision instrument with the following parameters:
as §1, §2, §3
as §4, with “uM” for “uM 100 nM”
XLFIT5 model 205 was applied for the data analysis. […]

Row | SMILES | EC50 (Parkin ligase) [µM] | RLM t1/2 [1] [min] | EC50 (Parkin) [µM]
1 | COc1ccc(-c2cnn3c(O)c4c(nc23)CN(C)CC4)cc1 [Compound R3] | > 100 | – | –
2 | COc1ccc(-c2cnc3c(S)cc(C)nn23)cc1 [Compound T3] | – | 96.0 | –
3 | Cc1ccc(-c2cnc3c(O)cc(C)nn23)cc1 [Compound U3] | > 100 | – | –

Results, then the compound that gave them:

Row | EC50 (Parkin ligase) [µM] | RLM t1/2 [1] [min] | EC50 (Parkin) [µM] | SMILES
4 | – | 6.0 | > 40 | COc1ccc(-c2cnc3c(S)cc(C)nn23)cc1 [Compound Q3]
5 | > 100 | – | – | COc1ccc(-c2cnc3c(O)cc(C)nn23)cc1 [Compound V3]
